From patent publication US20160208297A1, “OMEGA3 UNSATURATED FATTY ACID ENZYME AND METHOD FOR PRODUCING EICOSAPENTAENOIC ACID” (KYOTO UNIVERSITY, priority 2013, published 2016)

System: polypeptide (SEQ ID NO: 2) ω3 desaturase
Experiment: conversion of added ω6 unsaturated fatty acids to ω3 unsaturated fatty acids by yeast transformant expressing the cDNA (SEQ ID NO: 1)
Format: cell-based, Pythium folliculosum
Details: for conversion into the corresponding ω3 unsaturated fatty acid / Conversion rate (%): Saccharomyces cerevisiae InvSc1 transformant, 28° C., two days; for Conversion rate (%): substrate added to medium, [product amount/(substrate amount + product amount)] × 100
Protocol: The cDNA (SEQ ID NO: 1) prepared in the above was integrated into a yeast expression vector, pYE22m (Biosci. Biotech. Biochem., 1995, 59: 1221-1228). The vector was introduced into Saccharomyces cerevisiae InvSc1 strain (tryptophan auxotrophy […]) by an electroporation method to obtain a transformant. The transformant was cultured in YPD culture medium (polypeptone 20 g, yeast extract 10 g, adenine 0.4 g, agar 20 g and glucose 20 g were diluted in 1,000 mL of water) at 28° C. for one day to express the polypeptide from cDNA integrated therein. Note that ω3 desaturase inherent in the oleaginous yeast is not expressed in this culture condition. Subsequently, to the culture medium, an ω6 unsaturated fatty acid: linoleic acid (LA, 18: 2n-6), γ-linolenic acid (GLA, 18: 3n-6), dihomo-γ-linolenic acid (DGLA, 20: 3n-6), or arachidonic acid (ARA, 20: 4n-6) was added and cultured at 28° C. for two days. Thereafter the amounts of the corresponding ω3 unsaturated fatty acid: α-linolenic acid (ALA, 18: 3n-3), stearidonic acid (SDA, 18: 4n-3), eicosatetraenoic acid (ETA, 20: 4n-3) or eicosapentaenoic acid (EPA, 20: 5n-3) produced by ω3 unsaturation were measured.

For `CCCCC/C=C\C/C=C\C/C=C\CCCCC(=O)O` [GLA, γ-linolenic acid], the “conversion into the corresponding ω3 unsaturated fatty acid” value was “converted into the corresponding ω3 unsaturated fatty acids” and the “Conversion rate (%)” value was 8.36%.

`CCCCC/C=C\C/C=C\CCCCCCCC(=O)O` [LA, linoleic acid] was tested, and the “conversion into the corresponding ω3 unsaturated fatty acid” value was “converted into the corresponding ω3 unsaturated fatty acids” and the “Conversion rate (%)” value was 3.03%.

In the case of `CCCCC/C=C\C/C=C\C/C=C\CCCCCCC(=O)O` [DGLA, dihomo-γ-linolenic acid], the “conversion into the corresponding ω3 unsaturated fatty acid” value is reported as “converted into the corresponding ω3 unsaturated fatty acids” and the “Conversion rate (%)” value is reported as 6.90%.

In the case of `CCCCC/C=C\C/C=C\C/C=C\C/C=C\CCCC(=O)O` [AA, arachidonic acid], the “conversion into the corresponding ω3 unsaturated fatty acid” value is reported as “converted into the corresponding ω3 unsaturated fatty acids” and the “Conversion rate (%)” value is reported as 7.86%.

B1: polypeptide (SEQ ID NO: 2): ω3 desaturase derived from Pythium folliculosum or Pythium torulosum, encoded by cDNA SEQ ID NO: 1 (protein, listed as Pythium folliculosum)
chain: MADVNTSSPAAAPVATPEPFEFPSLTELKRSIPARYFESSAPRSLLFTARAFAFAYAFGAALFHARQLPLVAEHAALDALLCAAYTFLQGVNMWGFFTIGHDCGHGSFSRYHLLNFVVGTLTHSLILTPYEAWKLSHRLHHKNTGNIDQDEIFYPQRKETVNDPARKMVLSFGLAWWIYEIIGFPPRTEEHTELRDSLFSRHLITGSLSVLAHLACVMLAFNLTYVLGWATMGVYYWAPLFVFASMLVITTFLHHNDEETPWYADSEWTYVKGNLSSVDRDYGWVVNHLSHNIGTHQVHHLFPIIPHYNLNGATEYFRKAFPHLVRKSDDRILPAFVRVGLLYVKYGVIENDAKHFSLKDNREVLTKRA
modifications: Omega-3 desaturase
With B1 the ω3 desaturation activity (expressed in Saccharomyces cerevisiae InvSc1, 28° C.) was “an enzyme having ω3 desaturation activity at normal temperature”.
